# Data reported in US10688143B2, “Composition containing extract or fraction of genus Justicia plant” (priority 2014, dated 2020).
# Read-outs that look alike come from different tables or passages of the source.
# Columns and labels:
# [1] = test system: RBL-2H3 rat basophilic cells; assay: Degranulation inhibition (β-hexosaminidase secretion) in RBL-2H3 basophils induced with PMA/A23187; format: cell-based
# Experimental: (§1) MC/9 mouse mast cells were purchased from the American Tissue Cell Culture (ATCC # CRL-8306), and RBL-2H3 rat basophilic cells were purchased from the Korean Cell Link Bank (KCLB #22256). MC/9 mast cells and RBL-2H3 basophils were diluted at concentrations of 2×10^6 cells/mL and 5×10^5 cells/mL, respectively, and 400 μl of each of the dilutions was dispensed into each well of 24-well plates. Each well was pretreated with 10 μg/mL or 20 μg/mL of each of the extracts and fractions (prepared in Preparation Examples 1 and 2 and shown in Tables 1 to 5 above) for 30 minutes, and then degranulation of the cells was induced with 200 nM PMA/10 mM A23187 for 1 hour. […] The absorbance at 405 nm was measured, and β-hexosaminidase secretion (%) was calculated using the following equation 2: β-hexosaminidase secretion (%)={absorbance of medium/(absorbance of cell lysate+absorbance of medium)}×100 Equation 2
# (§2) Based on β-hexosaminidase secretion (%) obtained using equation 2 above, the degranulation inhibitory ability of each of the Justicia procumbens L. extracts was calculated using the following equation 3 (β-heXo: β-hexosaminidase): Degranulation inhibitory ability (%)={(β-hexo secretion % of test group−β-hexo secretion % of normal group)/(β-hexo secretion % of control group−β-hexo secretion % of normal group)}×100 Equation 3
# [2] = test system: U266B1 cells; assay: Inhibition of IgE antibody secretion in U266B1 cells (IgE ELISA); format: cell-based
# Experimental: The U266B1 cells used were purchased from the American Tissue Cell Culture (ATCC # TIB-196). Specifically, U266B1 cells were diluted in RPMI medium containing 15% fetal bovine serum (FBS) and antibiotics (100 U/mL of penicillin and 100 μg/mL of streptomycin) at a concentration of 2×10^5 cells/mL, and then the dilution was dispensed in a 24-well plate at a concentration of 400 μl/well and in a 96-well plate at a concentration of 100 μl/well, and incubated in a 5% CO2 incubator at 37° C. for 72 hours.
# The U266B1 cells were treated with 5 mg/mL of each of the Justicia procumbens L. extracts and fractions (prepared in Preparation Examples 1 and 2 and shown in Tables 1 to 5). The medium in the 24-well plate was used to measure IgE antibody secretion, and the 96-well plate was used to measure cytotoxicity.
# For measurement of IgE antibody secretion, the medium in the 24-well plate was collected and centrifuged at 125×g for 5 minutes to remove debris. 100 g of the medium was diluted 10-fold, and then the degree of IgE secretion was measured using IgE enzyme-linked immonosorbent assay (ELISA, Komabiotech Inc).
# [3] = test system: Balb/c mouse asthma models; assay: Inhibition of asthma in Balb/c mouse asthma models (ovalbumin): serum IgE, BALF IL-4, IL-5, inflammatory cells; format: in vivo; conditions: extracts 200 mg/kg oral daily for 10 days, dexamethasone 3 mg/kg intraperitoneal
# Experimental: 5-week-old Balb/c mice were purchased and acclimated for 1 week. On 0 and 14 days of 1 week of acclimation, the mice were systematically sensitized by intraperitoneally administering 0.1% ovalbumin (OVA: 1 mg/mL, Al(OH)3: 20 mg/mL) in an amount of 100 μl/mouse. […] As a positive control, 3 mg/kg of dexamethasone was administered intraperitoneally. After one hour, 0.2% ovalbumin solution was sprayed and inhaled into the mice for 1 hour by use of a nebulizer (PARI Boy SX, Germany GmbH). 5 hours after final sensitization (30 days), the mice were biopsied, and whole blood was sampled from the mice and centrifuged at 12000 rpm for 10 minutes to separate serum. In addition, the lung tissue was isolated from each mouse and flushed with 1 mL of phosphate buffered saline through tracheostomy to collect bronchoalveolar lavage fluid (BALF). The collected bronchoalveolar lavage fluid was centrifuged at 3000 rpm for 10 minutes, and the supernatant was used to measure physiologically active substances (IL-4, and IL-5), and the pellets were used to measure the number of inflammatory cells.
# The IgE concentration in the separated serum was measured using IgE enzyme-linked immonosorbent assay (ELISA, Komabiotech Inc.), and the physiologically active substances (interleukin-4 (IL-4) and interleukin-5 (IL-5)) in the isolated bronchoalveolar lavage fluid were measured using an enzyme-linked immonosorbent assay (ELISA, IL-4: Enzo # ADI-900-043, IL-5: R&D system # M5000) corresponding to each substance. The results of the measurement are shown in Table 14 below, and the ability of each extract to inhibit IgE secretion was calculated in the same manner as equation 4 shown in Example 3.
# In addition, the bronchoalveolar lavage fluid pellets were re-dissolved in 0.5 mL of phosphate buffered saline, and 0.1 mL of the solution was added to each well of a 96-well plate and centrifuged at 800 rpm for 5 minutes to attach the cells to the bottom (3 wells per sample). Then, each sample was stained with Diff Quik staining solution (Sysmex), and photographed with a microscope at 2-6 random sites. About 200 cells per sample were counted to calculate the percentage (%) of inflammatory cells of each group. The total number of inflammatory cells was measured with a microscope using a hematocytometer, and the number of basophils was calculated using the percentage (%) of each inflammatory cells, and is shown in FIG. 1. Statistical processing was performed using an SPSS program, and a Levene test was performed for a test for equal variance, and significance was tested by one-way analysis (ANOVA).
# [4] = test system: MC/9 mouse mast cells; assay: Degranulation inhibition (β-hexosaminidase secretion) in MC/9 mast cells induced with PMA/A23187; format: cell-based
# Experimental: as §1, §2
# [5] = test system: Balb/c mouse rhinitis models; assay: Inhibition of IgE secretion in Balb/c mouse rhinitis models (ovalbumin); format: in vivo; conditions: extract 200 mg/kg oral daily for 1 week, dexamethasone 3 mg/kg intraperitoneal
# Experimental: Specifically, 5-week-old Balb/c mice were purchased and acclimated for 1 week. On 0, 7 and 14 days of one week of acclimation, the mice were systematically sensitized by intraperitoneally injecting 0.1% ovalbumin (OVA: 1 mg/mL, Al(OH)3: 20 mg/ml) in an amount of 100 μl/mouse. […] As a positive control, 3 mg/kg of dexamethasone was intraperitoneally administered. After 1 hour, 0.4% ovalbumin solution was dropped into the nasal cavity. In the afternoon, 0.4% ovalbumin solution was dropped once more into the nasal cavity. […] The inhibition (%) of IgE secretion was calculated using the following equation 4: Inhibition (%) of secretion=100−{(concentration in test group−concentration in normal group)/(concentration in ovalbumin-induced group−concentration in normal group)}×100 Equation 4
structure (smiles),measurement,setting,value
C[C@@H]1C[C@H]2[C@@H]3CCC4=CC(=O)C=C[C@]4(C)[C@@]3(F)[C@@H](O)C[C@]2(C)[C@@]1(O)C(=O)CO [Dexamethasone],inhibition at 10 µg/mL,"[1]; RBL-2H3, 10 μg/mL, Table 11, read-out: Degranulation inhibition (%) (n = 3, Mean ± SE)",14 ± 3%
same,inhibition at 20 µg/mL,"[1]; RBL-2H3, 20 μg/mL, Table 9, read-out: Inhibition (%) of degranulation (n = 3, Mean ± SE)",18 ± 1%
same,inhibition at 5 µg/mL,"[2]; U266B1, 5 μg/mL, organic solvent extracts and fractions, Table 8, read-out: IgE secretion inhibition (%) (n = 3, Mean ± SE)",4 ± 3.4%
same,inhibition at 5 µg/mL,"[2]; U266B1, concentration of test group 5 μg/mL, Table 6, read-out: IgE secretion inhibition (%) (n = 4, Mean ± SE)",8 ± 15%
same,"Bronchoalveolar lavage fluid IL-4 (inhibition of IgE secretion, (%)), Mean ± SD",[3],(72.7 ± 3.8) %
same,"Bronchoalveolar lavage fluid IL-4 (pg/mL), Mean ± SD",[3],56.0 ± 2.1 # pg/mL
same,"Bronchoalveolar lavage fluid IL-5 (inhibition of IgE secretion, (%)), Mean ± SD",[3],(98.7 ± 9.2) %
same,"Bronchoalveolar lavage fluid IL-5 (pg/mL), Mean ± SD",[3],4.8 ± 3.2 # pg/mL
same,"Serum IgE concentration (ng/mL), Mean ± SD",[3],85.8 ± 4.9 # ng/mL
same,"Serum IgE (inhibition of IgE secretion, (%)), Mean ± SD",[3]; equation 4,(25.0 ± 5.8) %
same,"Degranulation inhibition (%) (n = 3, Mean ± SE)","[4]; MC/9, 10 μg/mL, Table 11",35 ± 0.2%
same,"Inhibition (%) of degranulation (n = 3, Mean ± SE)","[4]; MC/9, 20 μg/mL, Table 9",64 ± 0.2%
same,"Serum IgE concentration (ng/mL, Mean ± SE)",[5],32.2 ± 4.4 ng/mL
same,"Inhibition of IgE secretion (%, Mean ± SE)",[5]; equation 4,67.3 ± 6.3%
